According to the NIST ThermoML archive (doi:10.1021/je050050p):
± gives the expanded uncertainty stated by the source.

Assay: xn = mol fraction of the nth substance listed
Conditions: Liquid, Vibrating tube method

CN(C)C=O [dimethylformamide] + O=C=O
Conditions | mass density [kg/m3]
352.87 K, 13027 kPa, x2 = 0.4268 | 908.06 ± 0.42
352.87 K, 13995 kPa, x2 = 0.4268 | 909.43 ± 0.42
352.87 K, 14004 kPa, x2 = 0.2876 | 910.39 ± 0.42
352.87 K, 15002 kPa, x2 = 0.4268 | 910.84 ± 0.42
352.87 K, 15013 kPa, x2 = 0.2876 | 911.48 ± 0.42
352.87 K, 16013 kPa, x2 = 0.2876 | 912.56 ± 0.42
352.87 K, 16029 kPa, x2 = 0.4268 | 912.27 ± 0.42
352.87 K, 17030 kPa, x2 = 0.4268 | 913.63 ± 0.42
352.87 K, 17044 kPa, x2 = 0.2876 | 913.64 ± 0.42
352.87 K, 18010 kPa, x2 = 0.4268 | 914.96 ± 0.42
352.87 K, 18012 kPa, x2 = 0.2876 | 914.66 ± 0.42
352.87 K, 19003 kPa, x2 = 0.4268 | 916.29 ± 0.42
352.87 K, 19015 kPa, x2 = 0.2876 | 915.7 ± 0.42
352.87 K, 20024 kPa, x2 = 0.2876 | 916.74 ± 0.42
352.87 K, 20032 kPa, x2 = 0.4268 | 917.62 ± 0.42
352.87 K, 21004 kPa, x2 = 0.2876 | 917.74 ± 0.42
352.87 K, 21047 kPa, x2 = 0.4268 | 918.93 ± 0.42
352.87 K, 22005 kPa, x2 = 0.4268 | 920.15 ± 0.42
352.87 K, 22030 kPa, x2 = 0.2876 | 918.79 ± 0.42
352.87 K, 23001 kPa, x2 = 0.4268 | 921.41 ± 0.42
352.87 K, 23027 kPa, x2 = 0.2876 | 919.77 ± 0.42
352.87 K, 24014 kPa, x2 = 0.4268 | 922.68 ± 0.42
352.87 K, 24021 kPa, x2 = 0.2876 | 920.77 ± 0.42
352.87 K, 25022 kPa, x2 = 0.2876 | 921.74 ± 0.42
352.87 K, 25024 kPa, x2 = 0.4268 | 923.93 ± 0.43
362.68 K, 13997 kPa, x2 = 0.6235 | 842.98 ± 0.45
362.68 K, 15019 kPa, x2 = 0.6235 | 847.62 ± 0.45
362.68 K, 16021 kPa, x2 = 0.6235 | 851.83 ± 0.45
362.68 K, 16992 kPa, x2 = 0.6235 | 855.82 ± 0.5
362.68 K, 18022 kPa, x2 = 0.6235 | 859.78 ± 0.46
362.68 K, 19000 kPa, x2 = 0.6235 | 863.4 ± 0.46
362.68 K, 20047 kPa, x2 = 0.6235 | 867.1 ± 0.46
362.68 K, 21057 kPa, x2 = 0.6235 | 870.49 ± 0.45
362.68 K, 22005 kPa, x2 = 0.6235 | 873.58 ± 0.45
362.68 K, 22981 kPa, x2 = 0.6235 | 876.69 ± 0.45
362.68 K, 24005 kPa, x2 = 0.6235 | 879.78 ± 0.46
362.68 K, 24998 kPa, x2 = 0.6235 | 882.71 ± 0.46
362.73 K, 18005 kPa, x2 = 0.9311 | 641.86 ± 0.66
362.73 K, 19024 kPa, x2 = 0.9311 | 662.81 ± 0.64
362.73 K, 20021 kPa, x2 = 0.9311 | 680.44 ± 0.61
362.73 K, 21028 kPa, x2 = 0.9311 | 696.02 ± 0.6
362.73 K, 22008 kPa, x2 = 0.9311 | 709.54 ± 0.58
362.73 K, 23017 kPa, x2 = 0.9311 | 722.12 ± 0.57
362.73 K, 24029 kPa, x2 = 0.9311 | 733.65 ± 0.57
362.73 K, 25019 kPa, x2 = 0.9311 | 744.01 ± 0.56
362.75 K, 8032 kPa, x2 = 0.2876 | 891.2 ± 0.41
362.75 K, 9018 kPa, x2 = 0.2876 | 892.47 ± 0.41
362.75 K, 9986 kPa, x2 = 0.2876 | 893.65 ± 0.42
362.75 K, 10994 kPa, x2 = 0.2876 | 894.89 ± 0.42
362.75 K, 11002 kPa, x2 = 0.4268 | 890.57 ± 0.42
362.75 K, 12000 kPa, x2 = 0.2876 | 896.09 ± 0.42
362.75 K, 12008 kPa, x2 = 0.4268 | 892.17 ± 0.42
362.75 K, 13010 kPa, x2 = 0.4268 | 893.74 ± 0.43
362.75 K, 13037 kPa, x2 = 0.2876 | 897.35 ± 0.42
362.75 K, 14000 kPa, x2 = 0.4268 | 895.32 ± 0.43
362.75 K, 14023 kPa, x2 = 0.2876 | 898.48 ± 0.42
362.75 K, 15027 kPa, x2 = 0.4268 | 896.84 ± 0.43
362.75 K, 15039 kPa, x2 = 0.2876 | 899.66 ± 0.42
362.75 K, 16011 kPa, x2 = 0.2876 | 900.77 ± 0.42
362.75 K, 16015 kPa, x2 = 0.4268 | 898.33 ± 0.43
362.75 K, 17017 kPa, x2 = 0.4268 | 899.81 ± 0.43
362.75 K, 17019 kPa, x2 = 0.2876 | 901.92 ± 0.42
362.75 K, 18012 kPa, x2 = 0.2876 | 903.04 ± 0.42
362.75 K, 18013 kPa, x2 = 0.4268 | 901.24 ± 0.43
362.75 K, 19006 kPa, x2 = 0.2876 | 904.14 ± 0.42
362.75 K, 19024 kPa, x2 = 0.4268 | 902.72 ± 0.43
362.75 K, 20028 kPa, x2 = 0.4268 | 904.14 ± 0.43
362.75 K, 20035 kPa, x2 = 0.2876 | 905.27 ± 0.42
362.75 K, 20994 kPa, x2 = 0.2876 | 906.3 ± 0.42
362.75 K, 21039 kPa, x2 = 0.4268 | 905.51 ± 0.43
362.75 K, 22014 kPa, x2 = 0.4268 | 906.89 ± 0.43
362.75 K, 22029 kPa, x2 = 0.2876 | 907.43 ± 0.42
362.75 K, 23004 kPa, x2 = 0.2876 | 908.45 ± 0.42
362.75 K, 23027 kPa, x2 = 0.4268 | 908.24 ± 0.44
362.75 K, 24034 kPa, x2 = 0.2876 | 909.57 ± 0.42
362.75 K, 25002 kPa, x2 = 0.2876 | 910.55 ± 0.43
362.79 K, 18033 kPa, x2 = 0.8091 | 777.33 ± 0.83
362.79 K, 19005 kPa, x2 = 0.8091 | 784.9 ± 0.51
362.79 K, 20003 kPa, x2 = 0.8091 | 792.49 ± 0.5
362.79 K, 21014 kPa, x2 = 0.8091 | 799.75 ± 0.5
362.79 K, 22017 kPa, x2 = 0.8091 | 806.5 ± 0.5
362.79 K, 23043 kPa, x2 = 0.8091 | 813.1 ± 0.5
362.79 K, 24052 kPa, x2 = 0.8091 | 819.28 ± 0.49
362.79 K, 25083 kPa, x2 = 0.8091 | 825.05 ± 0.51
